Patent publication US8552037B2, “Tricyclic compound and pharmaceutical use thereof” (Takeda Pharmaceutical Company Limited, priority 2006, dated 2013)

Legend:
[1] = target: human melatonin 1 receptors (human MT1 receptors) (Homo sapiens (Human), UniProt P48039); assay: Melatonin receptor binding assay, 2-[125I] Iodomelatonin, CHO-hMelR7 cell membrane fraction; conditions: binding inhibition of 2-[125I] Iodomelatonin, CHO-hMelR7 membranes, 25° C., 2.5 hr
Description: (§1) Melatonin Receptor Binding Assay
(1) Preparation of CHO-hMelR7 Cells Expressing Human Melatonin 1 Receptors
(§2) (3) Preparation of Cell Membrane Fraction of CHO Cell (CHO-hMelR7 and CHO-hMT2) Stably Expressing Human MT1 and MT2 Receptors
(§3) CHO-hMelR7 and CHO-hMT2 cells were plated using Cellfactory (Nunc, #170009) under the conditions of 1×10^8 cells/2000 mL/flask. The cells were grown to confluent, and recovered by the following method. As the medium for CHO-hMelR7 and CHO-hMT2, MEM α containing 10% FBS and penicillin/streptomycin was used. […] of geneticin was added to the medium for CHO-hMT2.
(§4) The medium was discarded, cells were washed twice with 200 mL of EDTA/PBS(−), 200 mL of EDTA/PBS(−) was further added, and the cells were stood still at room temperature for 20 min until they were released. […] The mixture was further centrifuged at 1,500 rpm for 10 min at 4° C., and the obtained pellets were suspended in 20 mL of ice-cooled homogenizing buffer [10 mM NaHCO3, 5 mM EDTA, Protease inhibitor Complete (Roche), pH 7.4]. The cell suspension was homogenized 3 times using a polytron homogenizer at 20,000 rpm for 30 sec. The obtained homogenate was centrifuged (2,000 rpm, 10 min, 4° C.) using a low speed cooling centrifuge. The supernatant was recovered in an ultracentrifugation tube and ultracentrifuged (40,000 rpm, 60 min, 4° C.) using an ultracentrifuge (Beckman, L-90K). To the obtained pellets was added a suspending buffer [50 mM Tris-HCl, 1 mM EDTA, Protease inhibitor Complete (Roche), pH 7.4], and the pellets were suspended by pipetting. The protein concentration of this suspension was measured, diluted to 2 mg/mL to give cell membrane fractions of CHO-hMelR7 and CHO-hMT2 cells. […] Protein was quantified using BCA protein assay kit (Pierce) with BSA as the standard.
(§5) (4) Preparation of Membrane Fraction Suspension
(§6) Immediately before use, the membrane fractions of CHO-hMelR7 and CHO-hMT2 cells of the above-mentioned (3) were diluted 20-fold with assay buffer (50 mM Tris-HCl, pH 7.7).
(§7) Iodomelatonin (#NEX236, PerkinElmer) was diluted with the assay buffer to 400 pM for MT1 and 1 nM for MT2.
(§8) Then, a test compound (compound solution diluted with DMSO to 200-fold of the final measurement concentration) was added by 2 μL. 2 μL of DMSO was added to each well of the total binding control section, and 100 μM cold Melatonin solution (Sigma, diluted with DMSO to 100 μM) was added to each well of the nonspecific binding control section by 2 μL. Then, the membrane fraction suspension (100 μL) was added. […] Iodomelatonin solution of the above-mentioned (5) was added to each well mentioned above by 20 μL, and a binding reaction was carried out at 25° C. for 2.5 hr in a micromixer (TAITEC, Bioshaker M.BR-024).
(§9) Using a cell harvester (PerkinElmer), the binding reaction mixture in each well of the 96-well plate was transferred to a treated (immersed in 50 mM Tris, pH 7.7 in advance) filter plate (UniFilter GF/C, PerkinElmer) and filtered. After filtration, the plate was washed 4 times with the assay buffer, and dried in a dryer (42° C.) for 2 hr or more. 25 μL of a liquid scintillator (MicroScint O, PerkinElmer) was added to each well of the filter plate after drying, and the luminescence of scintillator was measured by TopCount (PerkinElmer) for 1 min.
(§10) Specific binding is a value obtained by subtracting nonspecific binding from the total binding. The binding inhibitory activity of the test compound is shown by the ratio of the value obtained by subtracting the measurement value when the test compound was added from the total binding, to the specific binding.

[2] = In vitro metabolic stability test; type: in vitro ADME; conditions: human liver microsome, NADPH production system, 37° C., 20 min incubation, HPLC-UV
Description: In Vitro Metabolic Stability Test
(1) Preparation of Analysis Sample
The necessary amounts of the analysis samples were prepared at the following composition ratio. Test compound mixture: 0.1 mol/L phosphate buffer (pH 7.4) (41 μL), control microsome (manufactured by Gentest, human lymphoblastoid cell-derived control microsome, 10 mg protein/mL) (8 μL), and test compound 0.1 mM methanol solution (1 μL). Microsome mixed solution: 0.1 mol/L phosphate buffer (pH 7.4) (9 μL), human liver microsome (manufactured by XENOTECH, H0610, 20 mg protein/mL) (1 μL), and purified water (20 μL). NADPH production system: 50 mmol/L β-NADP+ (200 μL), 500 mmol/L Glucose-6-phosphate (200 μL), 150 unit/mL Glucose-6-phosphate dehydrogenase (200 μL), 0.1 mol/L MgCl2 (1 mL), and purified water (2.4 mL).
Microsome mixed solution (30 μL) and NADPH production system (20 μL) were sequentially dispensed to each well of a 96 well plate (type 3371, Corning), and a test compound mixture (50 μL) was added. Acetonitrile (100 μL) was added before start of incubation at 37° C. or 20 min later to give samples before and after incubation. These samples were centrifuged (3,000 rpm, 10 min), and the supernatant was dispensed to a 96 well plate by about 100 μL and 2-fold diluted with purified water (100 μL). 90 μL thereof was analyzed by HPLC.
HPLC analysis Conditions • Instrument: Shimadzu LC10vp • Column: CAPCELL PAK C18 MGII (4.6×75 mm, 3 μm) • Mobile phase A: 10 mmol/L ammonium acetate:acetonitrile=9:1 • Mobile phase B: 10 mmol/L ammonium acetate:acetonitrile=1:9 • Flow rate: 1 mL/min • Column temperature: 40° C. • Detection: UV (250 nm) • Gradient: […]
(3) Data Analysis and Results
Elimination percentage was determined from the difference in the unchanged compound peak areas before and after the start of the reaction, normalized based on the reaction time and microsome concentration, and the elimination rate (%/min/mg) was calculated.

[3] = target: human melatonin 2 receptors (human MT2 receptors) (Homo sapiens (Human), UniProt P49286); assay: Melatonin receptor binding assay, 2-[125I] Iodomelatonin, CHO-hMT2 cell membrane fraction; conditions: binding inhibition of 2-[125I] Iodomelatonin, CHO-hMT2 membranes, 25° C., 2.5 hr
Sequence of human melatonin 2 receptors (human MT2 receptors) (P49286 whole entry): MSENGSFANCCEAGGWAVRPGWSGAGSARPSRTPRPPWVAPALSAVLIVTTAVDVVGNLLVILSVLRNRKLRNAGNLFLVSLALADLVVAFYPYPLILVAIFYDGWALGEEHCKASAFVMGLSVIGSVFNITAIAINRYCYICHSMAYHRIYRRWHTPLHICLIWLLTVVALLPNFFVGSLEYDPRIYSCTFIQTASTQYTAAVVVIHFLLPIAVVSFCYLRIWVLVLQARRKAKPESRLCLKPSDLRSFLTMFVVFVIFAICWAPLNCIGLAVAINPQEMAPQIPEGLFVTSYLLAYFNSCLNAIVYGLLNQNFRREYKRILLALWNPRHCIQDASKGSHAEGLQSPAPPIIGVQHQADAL
Description: as §1
(2) Preparation of CHO-hMT2 Cells Expressing Human Melatonin 2 Receptors
CHO-K1 cells (ATCC, #CCL-61) were plated at the concentration of 1.5×10^5 cells/cm^2 in a 6 well plate (ASAHI TECHNO GLASS), and cultured under the conditions of 37° C., 5% CO2 for 24 hr.
as §2, §3, §4, §5, §6, §7, §8, §9, §10

Sequence of human melatonin 1 receptors (human MT1 receptors) (P48039 whole entry): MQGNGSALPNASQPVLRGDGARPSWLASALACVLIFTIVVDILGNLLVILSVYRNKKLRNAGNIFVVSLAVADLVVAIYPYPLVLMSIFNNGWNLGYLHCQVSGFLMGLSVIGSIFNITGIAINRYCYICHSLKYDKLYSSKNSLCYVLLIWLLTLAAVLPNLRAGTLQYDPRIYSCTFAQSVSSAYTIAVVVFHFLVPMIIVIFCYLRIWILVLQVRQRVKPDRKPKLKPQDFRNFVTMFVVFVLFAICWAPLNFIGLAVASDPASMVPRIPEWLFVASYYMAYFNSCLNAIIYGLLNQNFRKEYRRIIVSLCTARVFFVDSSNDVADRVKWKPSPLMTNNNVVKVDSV

| Structure (SMILES) | IC50 [1] | elimination rate (%/min/mg) [2] | IC50 [3] | melting point |
| --- | --- | --- | --- | --- |
| CCC(=O)NCC[C@@H]1CCc2ccc3nc(C)oc3c21 [Example 15, (S)-N-[2-(2-Methyl-7,8-dihydro-6H-indeno[5,4-d][1,3]oxazol-8-yl)ethyl]propionamide] | 0.03 nM | 2.6 %/min/mg | 0.049 nM |  |
| COc1nc2ccc3c(c2o1)C(CCNC(C)=O)CC3 (stereo not shown) [Example 38, N-[2-(2-Methoxy-7,8-dihydro-6H-indeno[5,4-d][1,3]oxazol-8-yl)ethyl]acetamide] | 0.54 nM | 2.6 %/min/mg | 0.28 nM | 126 to 128 °C |
| CC(=O)NCC=C1CCc2ccc3nc(CCCCc4ccccc4)oc3c21 [Example 6, N-{2-[2-(4-Phenylbutyl)-6,7-dihydro-8H-indeno[5,4-d][1,3]oxazol-8-ylidene]ethyl}acetamide] | 0.079 nM |  | 0.43 nM | 113 to 115 °C |

Second part, the compound after the results:

| IC50 [1] | elimination rate (%/min/mg) [2] | IC50 [3] | melting point | Structure (SMILES) |
| --- | --- | --- | --- | --- |
| 0.057 nM | −0.3 %/min/mg | 0.13 nM |  | CC(=O)NCC[C@@H]1CCc2ccc3nc(C)oc3c21 [Example 12, (S)-N-[2-(2-Methyl-7,8-dihydro-6H-indeno[5,4-d][1,3]oxazol-8-yl)ethyl]acetamide] |
| 0.15 nM | 2.4 %/min/mg | 0.28 nM |  | CC(=O)NCCC1CCc2ccc3nc(C)sc3c21 (stereo not shown) [Example 19, N-[2-(2-Methyl-7,8-dihydro-6H-indeno[5,4-d][1,3]thiazol-8-yl)ethyl]acetamide] |
| 0.038 nM | 2.7 %/min/mg | 0.12 nM |  | CC(=O)NCC[C@@H]1CCc2ccc3nc(C)sc3c21 [Example 20, (S)-N-[2-(2-Methyl-7,8-dihydro-6H-indeno[5,4-d][1,3]thiazol-8-yl)ethyl]acetamide] |
